Measured values published in patent publication US11578056B2, “Solid forms comprising (S)-2-(2,6-dioxopiperidin-3-yl)-4-((2-fluoro-4-((3-morpholinoazetidin-1-yl)methyl)benzyl)amino)isoindoline-1,3-dione and salts thereof, and compositions comprising and methods of using the same” (Celgene Corporation, priority 2019, dated 2023).

How the values were obtained:
Assay in all cases: Hematological cell line viability/apoptosis flow cytometry assay
Type in all cases: cell-based
[1] = system: SU-DHL-8 cell line; conditions: SU-DHL-8 (DLBCL GCB); 120 h
Method: (§1) Cell Proliferation and Viability Assay Using Hematological Cell Lines: The following exemplary anti-proliferative assay uses exemplary hematological cell lines in the following. The in vitro growth inhibitory activity of Compound 1 described herein was evaluated using a 384-well flow cytometry assay.
(§2) The cell lines were plated in 384-well flat bottom plates and assessed with increasing concentrations of compound ranging from 0.00015 to 10 μM or dimethyl sulfoxide (DMSO) control. The final concentration of DMSO was 0.1% (v/v). Following the addition of Compound 1 or DMSO and incubation for 120 hours, cell number and cell death were analyzed by flow cytometry (Attune®, Thermo Fisher) using Annexin V and the live-cell impermeant DNA dye, DRAQ7. Phosphatidylserine translocates from the inner layer to the outer layer of the cell membrane early in apoptosis and Annexin V binds to the exposed phosphatidylserine found on the surface of an apoptotic cell. The vital dye DRAQ7 is excluded by intact live cells and only stains cells that have died as a result of apoptosis or necrosis.
(§3) Flow cytometry data analysis was then performed using the Flow Jo_v10 software to determine the number of viable cells (Annexin V and DRAQ7 double negative staining cells) and percentage of apoptotic cells (Annexin V positive cells) for each condition. The live cell count for every concentration was normalized to the DMSO control (considered as 100%) to calculate the percentage of viable cells remaining after treatment and graphed using GraphPad Prism 7.03. The IC50 (50% inhibitory concentration) and Emax (maximum efficacy achieved) values were then calculated by performing nonlinear regression curve fitting using log(inhibitor) vs. normalized response—variable slope analysis on GraphPad Prism 7.03. Area under the curve (AUC) was calculated by performing area under curve analysis on GraphPad Prism 7.03. Similarly, for apoptosis analysis, the percentage of apoptosis combining both “early” (Annexin V positive and DRAQ7 negative) and “late” apoptosis (Annexin V and DRAQ7 positive) cell gates relative to DMSO was graphed using GraphPad Prism 7.03. The AUC, EC50 (concentration of compound that produces half-maximal apoptosis response) and Ymax (maximal percentage of apoptosis achieved) values from apoptosis curves were calculated by performing area under curve analysis and nonlinear regression curve fitting using log(agonist) vs. normalized response—Variable slope analysis on GraphPad Prism 7.03.
(§4) Dose-response proliferation curves for the panel of hematological cell lines and non-linear curve-fit regression were used to determine IC50, AUC, and Emax for % viable cells (Emax for viability varies between 100 at low doses and 0 at high doses, which corresponds to inhibition of all viable cells), and dose-response apoptosis curves were used to determine the EC50, AUC, and Ymax for % apoptosis (Ymax for apoptosis varies from 0 at low doses and 100 at higher doses which corresponds to death of all cells). Tumor cells were exposed to serial dilutions (0.00015 to 10 μM) of Compound 1 or dimethyl sulfoxide (DMSO) control for 5 days. Viability and apoptosis for all cell lines was determined by Annexin V/7-aminoactinomycin D (7-AAD) flow cytometry.

[2] = system: WSU-DLCL2 cell line; conditions: WSU-DLCL2 (DLBCL GCB); 120 h
Method: as §1, §2, §3, §4

[3] = system: U-2940 cell line; conditions: U-2940 (DLBCL PMBL); 120 h
Method: as §1, §2, §3, §4

[4] = system: OCI-LY7 cell line; conditions: OCI-LY7 (DLBCL GCB); 120 h
Method: as §1, §2, §3, §4

[5] = system: WILL-1 cell line; conditions: WILL-1 (DLBCL); 120 h
Method: as §1, §2, §3, §4

[6] = system: U-2946 cell line; conditions: U-2946 (DLBCL), 120 h
Method: as §1, §2, §3, §4

[7] = system: WILL-2 cell line; conditions: WILL-2 (DLBCL), 120 h
Method: as §1, §2, §3, §4

[8] = system: HG3 cell line; conditions: HG3 (CLL), 120 h
Method: as §1, §2, §3, §4

[9] = system: ROS-50 cell line; conditions: ROS-50 (DLBCL), 120 h
Method: as §1, §2, §3, §4

[10] = system: L-428 cell line; conditions: L-428 (HL), 120 h
Method: as §1, §2, §3, §4

[11] = system: HuT-102 cell line; conditions: HuT-102 (TCL), 120 h
Method: as §1, §2, §3, §4

[12] = system: OCI-LY1 cell line; conditions: OCI-LY1 (DLBCL GCB); 120 h
Method: as §1, §2, §3, §4

[13] = system: Mec1 cell line; conditions: Mec1 (CLL), 120 h
Method: as §1, §2, §3, §4

[14] = Homo sapiens, read-out: % Viable Cells IC50

O=C1CC[C@H](N2C(=O)c3cccc(NCc4ccc(CN5CC(N6CCOCC6)C5)cc4F)c3C2=O)C(=O)N1 [Compound 1, (S)-2-(2,6-dioxopiperidin-3-yl)-4-((2-fluoro-4-((3-morpholinoazetidin-1-yl)methyl)benzyl)amino)isoindoline-1,3-dione]
% Viable Cells AUC [1]: 119.5 | % Viable Cells Emax [1]: 2.081% | Apoptosis AUC [1]: 363.2 | Apoptosis Ymax [1]: 85.44% | % Viable Cells AUC [2]: 36.7 | % Viable Cells Emax [2]: 1.387% | Apoptosis AUC [2]: 858.9 | Apoptosis Ymax [2]: 92.1% | % Viable Cells AUC [3]: 70.43 | % Viable Cells Emax [3]: 5.192% | Apoptosis AUC [3]: 792.5 | Apoptosis Ymax [3]: 82.19% | % Viable Cells AUC [4]: 48.18 | % Viable Cells Emax [4]: 4.191% | Apoptosis AUC [4]: 682.7 | Apoptosis Ymax [4]: 71.18% | % Viable Cells AUC [5]: 233.7 | % Viable Cells Emax [5]: 4.216% | Apoptosis AUC [5]: 549.4 | Apoptosis Ymax [5]: 79.51% | % Viable Cells AUC [6]: 45.47 | % Viable Cells Emax [6]: 0.4821% | Apoptosis AUC [6]: 762.6 | Apoptosis Ymax [6]: 93.34% | EC50 [6]: 0.192 µM | IC50 ([6]; read-out: % Viable Cells IC50): 0.0046 µM | % Viable Cells AUC [7]: 17.1 | % Viable Cells Emax [7]: 0.03115% | Apoptosis AUC [7]: 916.9 | Apoptosis Ymax [7]: 99.43% | EC50 [7]: 0.0897 µM | IC50 ([7]; read-out: % Viable Cells IC50): 0.00236 µM | % Viable Cells AUC [8]: 676.2 | % Viable Cells Emax [8]: 59.58% | Apoptosis AUC [8]: 131.5 | Apoptosis Ymax [8]: 14.28% | EC50 ([8]; HG-3): 0.111 µM | IC50 ([8]; HG-3, read-out: % Viable Cells IC50): > 10 µM | % Viable Cells AUC [9]: 762.1 | % Viable Cells Emax [9]: 65.57% | Apoptosis AUC [9]: 87.92 | Apoptosis Ymax [9]: 10.9% | EC50 [9]: 0.335 µM | IC50 ([9]; read-out: % Viable Cells IC50): > 10 µM | EC50 ([10]; Homo sapiens): 64.5 µM | IC50 [10, 14]: 0.252 µM | % Viable Cells AUC [10]: 450.4 | % Viable Cells Emax [10]: 47.3% | Apoptosis AUC [10]: 63.35 | Apoptosis Ymax [10]: 27.50% | % Viable Cells AUC [11]: 395.4 | % Viable Cells Emax [11]: 36.34% | Apoptosis AUC [11]: 42.75 | Apoptosis Ymax [11]: 18.50% | EC50 [11]: 23.4 µM | IC50 ([11]; read-out: % Viable Cells IC50): 0.0065 µM | % Viable Cells AUC [12]: 22.77 | % Viable Cells Emax [12]: 1.037% | Apoptosis AUC [12]: 852.3 | Apoptosis Ymax [12]: 90.09% | EC50 ([13]; Homo sapiens): 0.21 µM | IC50 [13, 14]: > 10 µM | % Viable Cells AUC [13]: 866.5 | % Viable Cells Emax [13]: 83.45% | Apoptosis AUC [13]: 302.4 | Apoptosis Ymax [13]: 36.61%
